Reference: US20180064635A1, “COSMETIC COMPOSITION COMPRISING SLIME OF SNAIL FED WITH BERRY FRUITS AND PREPARATION METHOD THEREOF” (CREALAND CO., LTD, priority 2015, published 2018)

Columns and labels:
[1] = Free radical scavenging test (DPPH); assay type: biochemical; settings: snail slime filtrates, 37° C. 15 minutes, absorbance 540 nm
Protocol: A free radical scavenging test and a reactive oxygen scavenging test were performed in order to confirm the antioxidant effect of the snail slime filtrates prepared in Examples 1 and 2 and Comparative Examples 1 and 2, as a verifying test for a skin aging improvement effect.
The snail slime filtrates prepared in the above Examples 1 and 2 and Comparative Examples 1 and 2 were diluted with methanol in a predetermined concentration, and 1 ml of the dilution was mixed with 1 ml of a 0.1 mM 2,2-diphenyl-1-picryl-hydrazyl radical (DPPH, Sigma) solution. After the mixture leaves at 37° C. for 15 minutes, the absorbance was measured at the wavelength of 540 nm by using a microplate reader (Thermo max, USA).
In the above free radical scavenging test, the control group was measured In the same manner by inputting 1 ml of DPPH and 1 ml of methanol, and color correction values were obtained with respect to each of the sample and the control group by inputting 1 ml of methanol and 1 ml of sample.
SC50 is the concentration of the sample required to scavenge 50% of the free radicals, and the smaller value indicates the higher antioxidant activity.
Free radical scavenging rate (%)=100−((absorbance of sample/absorbance of control group)×100)

[2] = Active oxygen scavenging test (xanthine/xanthine oxidase, NBT); assay type: biochemical; settings: snail slime filtrates, absorbance 540 nm
Protocol: In the active oxygen scavenging test, changes on the absorbance are measured using the oxidation of nitroblue tetrazolium (NBT) by active oxygen by using active oxygen generation upon enzymatic reaction of xanthine/xanthine oxidase (Sigma), thus the scavenging ability of the active oxygen can be confirmed.
2.4 ml of sodium carbonate (Na2CO3), 0.1 ml of xanthine (Sigma), 0.1 ml of ethylene diamine tetra acetic acid (EDTA), 0.1 ml of bovine serum albumin (BSA, Sigma), 0.1 ml of NBT, and 1 ml of the snail slime filtrates prepared in Examples 1 and 2 and Comparative Examples 1 and 2 were added, vortexing was carried out by using a vortex mixer (Type 37600 Mixer, Mini mix, USA), the mixture was left at 25° C. for 10 minutes. After 0.1 ml of xanthine oxidase was added and reacted at 25° C. for 20 minutes, the reaction was stopped by inputting 6 mM of CuCl2, and the absorbance was measured at the wavelength of 540 nm by using a microplate reader (UVT-06685, Thermo max, USA).
The control group in the active oxygen scavenging activity test was measured in the same manner by inputting third distilled water instead of the sample solution. […]
Active oxygen scavenging rate (%)=100−((absorbance of sample/absorbance of control group)×100)

[3] = Skin moisturizing effect, capacitance measurement on flexor surface of the forearm; assay type: in vivo, human (30 females in their 20s and 30s); settings: 1 wt % aqueous solution, 2.0 mg/cm2
Protocol: Measurement of moisturizing effect of snail slime filtrates prepared in Examples 1 and 2 and Comparative Examples 1 and 2 was carried out by a capacitance measurement scheme using an oil and moisture analyzer (WSK-P500U, Inforward. Inc., Japan). 1 wt % an aqueous solution of the snail slime filtrates prepared in Examples 1 and 2 and Comparative Examples 1 and 2 was compared with 1 wt % aqueous solution of hyaluronic acid sodium salt (Sigma) which is known to be excellent in a skin moisturizing effect based on various studies.
30 females in their 20s and 30s were targeted, a flexor surface of the forearm was allowed to acclimate to a constant temperature and humidity chamber (22° C. and 40-60% of relative humidity) for 20 minutes right before the test starts, and the moisture of the skin was constantly maintained. Then, after measuring the initial moisture content of an application site of each sample using the oil and moisture analyzer (WSK-P500U, Inforward. Inc., Japan), each of the samples at 2.0 mg/cm2 was applied at a different position for each examinee to minimize an error according to the flexor surface of the forearm. The skin moisture was firstly measured at time intervals of 10 minutes, 30 minutes, 50 minutes, 90 minutes, and 120 minutes after the application, and after 2 hours, the skin moisture was measured again.
Each measurement site was measured repeatedly for three times and skin moisture was calculated by the average value.

| Molecule | Free radical scavenging rate SC50 [1] [ppm] | Active oxygen scavenging rate IC50 [2] [ppm] | Moisture content subject to time after application ([3]; 10 minutes after application) [A.U] | Moisture content subject to time after application ([3]; 30 minutes after application) [A.U] | Moisture content subject to time after application ([3]; 50 minutes after application) [A.U] | Moisture content subject to time after application ([3]; 90 minutes after application) [A.U] | Moisture content subject to time after application ([3]; 120 minutes after application) [A.U] |
| --- | --- | --- | --- | --- | --- | --- | --- |
| Cc1cc(C(C)(C)C)c(O)c(C(C)(C)C)c1 [BHT] | 125 | 154 |  |  |  |  |  |
| hyaluronic acid sodium salt |  |  | 61.31 | 58.24 | 57.21 | 55.87 | 52.11 |
